Reference: ChEMBL document CHEMBL1150375, “Novel inhibitors of the v-raf murine sarcoma viral oncogene homologue B1 (BRAF) based on a 2,6-disubstituted pyrazine scaffold” (J Med Chem, 2008)

How the values were obtained:
[1] = biological target: Serine/threonine-protein kinase B-raf (Homo sapiens, UniProt P15056, V600E)
Description: Inhibition of human BRAF V600E mutant expressed in SF9 cells

[2] = biological target: RAF proto-oncogene serine/threonine-protein kinase (Homo sapiens, UniProt P04049); test: Inhibition of CRAF
[3] = Selectivity ratio of IC50 for CRAF to IC50 for human BRAF V600E mutant

RAF proto-oncogene serine/threonine-protein kinase, sequence (P04049 whole entry): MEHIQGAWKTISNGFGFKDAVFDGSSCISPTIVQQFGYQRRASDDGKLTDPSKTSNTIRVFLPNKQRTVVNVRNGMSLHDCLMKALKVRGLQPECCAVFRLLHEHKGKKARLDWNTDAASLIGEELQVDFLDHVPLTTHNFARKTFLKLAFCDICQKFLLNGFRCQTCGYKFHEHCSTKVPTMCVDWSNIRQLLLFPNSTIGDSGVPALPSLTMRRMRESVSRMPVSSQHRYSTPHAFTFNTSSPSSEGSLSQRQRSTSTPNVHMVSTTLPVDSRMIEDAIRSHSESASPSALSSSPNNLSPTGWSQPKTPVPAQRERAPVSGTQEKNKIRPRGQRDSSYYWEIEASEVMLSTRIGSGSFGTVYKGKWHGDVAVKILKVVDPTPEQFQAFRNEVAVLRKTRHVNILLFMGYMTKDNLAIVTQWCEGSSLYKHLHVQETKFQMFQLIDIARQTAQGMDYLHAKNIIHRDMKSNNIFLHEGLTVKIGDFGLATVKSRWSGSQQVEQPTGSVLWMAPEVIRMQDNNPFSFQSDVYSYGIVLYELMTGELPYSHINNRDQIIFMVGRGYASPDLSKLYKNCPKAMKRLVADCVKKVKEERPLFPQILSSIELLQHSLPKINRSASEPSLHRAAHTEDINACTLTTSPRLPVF
Serine/threonine-protein kinase B-raf, sequence (P15056 2-766 V600E limits assumed): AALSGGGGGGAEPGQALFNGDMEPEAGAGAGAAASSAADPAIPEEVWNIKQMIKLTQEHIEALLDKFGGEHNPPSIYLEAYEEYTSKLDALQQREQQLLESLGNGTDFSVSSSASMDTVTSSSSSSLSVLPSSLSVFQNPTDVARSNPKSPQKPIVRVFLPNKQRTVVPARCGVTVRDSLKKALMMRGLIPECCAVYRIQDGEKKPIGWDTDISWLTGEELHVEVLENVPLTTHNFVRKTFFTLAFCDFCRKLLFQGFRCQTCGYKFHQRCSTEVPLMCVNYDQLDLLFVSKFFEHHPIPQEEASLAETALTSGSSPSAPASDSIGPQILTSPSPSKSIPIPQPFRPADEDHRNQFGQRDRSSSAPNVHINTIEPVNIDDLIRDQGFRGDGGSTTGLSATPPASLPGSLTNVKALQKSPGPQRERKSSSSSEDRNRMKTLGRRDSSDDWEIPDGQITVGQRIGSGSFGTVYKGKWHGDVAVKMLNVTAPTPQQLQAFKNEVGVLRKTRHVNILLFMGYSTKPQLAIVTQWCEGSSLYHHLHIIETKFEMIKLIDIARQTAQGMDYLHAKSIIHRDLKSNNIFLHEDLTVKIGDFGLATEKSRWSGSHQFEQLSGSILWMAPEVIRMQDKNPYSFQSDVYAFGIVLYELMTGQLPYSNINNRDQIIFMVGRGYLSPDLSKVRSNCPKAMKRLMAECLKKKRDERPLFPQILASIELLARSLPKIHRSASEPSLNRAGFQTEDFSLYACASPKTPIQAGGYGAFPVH

| Structure (SMILES) | IC50 [1] | IC50 [2] | Ratio IC50 [3] |
| --- | --- | --- | --- |
| COc1cc(Nc2cncc(-c3cccnc3)n2)cc(OC)c1OC | 22 µM |  |  |
| COc1cc(Nc2cncc(Oc3cccc(C(C)=O)c3)n2)cc(OC)c1OC | 19 µM |  |  |
| COc1cc(Nc2cncc(Oc3ccc(NC(C)=O)c4ccccc34)n2)cc(OC)c1OC | 0.56 µM | 20.3 µM | 36 |
| COc1cc(Nc2cncc(Oc3ccc4c(c3)/C(=N/O)CC4)n2)cc(OC)c1OC | 86 µM |  |  |
| COc1cc(Nc2cncc(-c3cccc(NC(C)=O)c3)n2)cc(OC)c1OC | 3.5 µM |  |  |
| COc1cc(Nc2cncc(Oc3ccc4c(c3)C(=O)CC4)n2)cc(OC)c1OC | 22 µM |  |  |
| COc1cc(Nc2cncc(Oc3cccc4c3CC/C4=N\O)n2)cc(OC)c1OC | 1.4 µM |  |  |
| COc1cc(Nc2cncc(-c3ccncc3)n2)cc(OC)c1OC | 2.9 µM |  |  |
| COc1cc(Nc2cncc(-c3cccc(NC(C)=O)c3)c2)cc(OC)c1OC | 26 µM |  |  |
| COc1cc(Nc2cncc(Oc3ccc4c(c3)CCC/C4=N\O)n2)cc(OC)c1OC | 92 µM |  |  |
| COc1cc(Nc2cncc(-c3ccc(C=O)cc3)n2)cc(OC)c1OC | 3 µM |  |  |
| COc1cc(Nc2cncc(Nc3cccc(NC(C)=O)c3)n2)cc(OC)c1OC | 14 µM |  |  |
| COc1cc(Nc2cncc(Oc3ccccc3F)n2)cc(OC)c1OC | 45 µM |  |  |
| COc1cc(Nc2nc(-c3cccc(NC(C)=O)c3)cnc2NC(C)=O)cc(OC)c1OC | > 100 µM |  |  |
| COc1cc(Nc2cncc(Oc3ccccc3)n2)cc(OC)c1OC | 31 µM |  |  |
| COc1cc(Nc2cncc(Oc3cccc(NC(C)=O)c3)n2)cc(OC)c1OC | 13 µM |  |  |
| COc1cc(Nc2cncc(Nc3ccc(NC(C)=O)cc3)n2)cc(OC)c1OC | 16 µM |  |  |
| COc1cc(Nc2cncc(Oc3cccc4ccccc34)n2)cc(OC)c1OC | 1.2 µM |  |  |
| COc1cc(Nc2cncc(Oc3ccc(NC(C)=O)cc3)n2)cc(OC)c1OC | 5.5 µM |  |  |

| Structure (SMILES) | IC50 [1] | IC50 [2] | Ratio IC50 [3] |
| --- | --- | --- | --- |
| COc1cc(Nc2cncc(Oc3cccc(/C(C)=N/O)c3)n2)cc(OC)c1OC | 11 µM |  |  |
| COc1cc(Nc2cncc(Oc3cccc4c3CCCC4=O)n2)cc(OC)c1OC | 29 µM |  |  |
| COc1cc(Nc2cncc(Oc3cccc(F)c3)n2)cc(OC)c1OC | 56 µM |  |  |
| COc1cc(Nc2cncc(Nc3ccc(F)cc3)n2)cc(OC)c1OC | 19 µM |  |  |
| COc1cc(Nc2cncc(-c3ccc(NC(=O)Nc4ccccc4)cc3)n2)cc(OC)c1OC | 1.16 µM | > 100 µM | > 86 |
| CC(=O)Nc1ccc(Oc2cncc(Nc3cccc(-c4cnco4)c3)n2)c2ccccc12 | 0.31 µM | 1.52 µM | 5 |
| COc1cc(Nc2cncc(Nc3cccc(F)c3)n2)cc(OC)c1OC | 12 µM |  |  |
| COc1cc(Nc2cncc(Oc3ccc(/C(C)=N/O)cc3)n2)cc(OC)c1OC | 26 µM |  |  |
| CCOC(=O)c1cccc(-c2cncc(Nc3cc(OC)c(OC)c(OC)c3)n2)c1 | 14 µM |  |  |
| COc1cc(Nc2cncc(-c3ccc(C(N)=O)cc3)n2)cc(OC)c1OC | 1.12 µM | 38.2 µM | 34 |
| COc1cc(Nc2cncc(Oc3cccc4[nH]ccc34)n2)cc(OC)c1OC | 7.4 µM |  |  |
| COc1cc(Nc2cncc(Oc3cccc4ncccc34)n2)cc(OC)c1OC | 10 µM |  |  |
| COc1cc(Nc2cncc(Oc3ccc4ccccc4c3)n2)cc(OC)c1OC | > 100 µM |  |  |
| COc1cc(Nc2cncc(Oc3ccc4c(c3)CCC4=O)n2)cc(OC)c1OC | 70 µM |  |  |
| COc1cc(Nc2cncc(Oc3cccc4cnccc34)n2)cc(OC)c1OC | 3.8 µM |  |  |
| COc1cc(Nc2cncc(Oc3cccc4c3CCC4=O)n2)cc(OC)c1OC | 18 µM |  |  |
| COc1cc(Nc2cncc(Nc3ccccc3)n2)cc(OC)c1OC | 16 µM |  |  |
| COc1cc(Nc2cncc(Oc3cccc4c(NC(C)=O)cccc34)n2)cc(OC)c1OC | 0.41 µM |  |  |
| COc1cc(Nc2cncc(Oc3cccnc3)n2)cc(OC)c1OC | 45 µM |  |  |

| Structure (SMILES) | IC50 [1] | IC50 [2] | Ratio IC50 [3] |
| --- | --- | --- | --- |
| COc1cc(Nc2cncc(Oc3ccccc3-c3ccccc3)n2)cc(OC)c1OC | 10 µM |  |  |
| CC(=O)Nc1cccc2c(Oc3cncc(Nc4cccc(-c5cnco5)c4)n3)cccc12 | 0.65 µM | 6.96 µM | 11 |
| COc1cc(Nc2cncc(Nc3ccc(O)cc3)n2)cc(OC)c1OC | 4.9 µM |  |  |
| COc1cc(Nc2cncc(-c3ccc(O)cc3)n2)cc(OC)c1OC | 18 µM |  |  |
| COc1cc(Nc2cncc(Oc3ccc(C(C)=O)cc3)n2)cc(OC)c1OC | 34 µM |  |  |
| COc1cc(Nc2cncc(Oc3ccc4c(c3)OC(=O)CC4)n2)cc(OC)c1OC | 44 µM |  |  |
| COc1cc(Nc2cncc(Oc3ccnc4ccccc34)n2)cc(OC)c1OC | 1.5 µM |  |  |
| COc1cc(Nc2cncc(Oc3cccc4c3CCCC4)n2)cc(OC)c1OC | 18 µM |  |  |
| COc1cc(Nc2cncc(Oc3cccc(Cl)c3)n2)cc(OC)c1OC | 36 µM |  |  |
| COc1cc(Nc2cncc(-c3cccc(C#N)c3)n2)cc(OC)c1OC | 9.8 µM |  |  |
| COc1cc(Nc2cncc(Oc3ccc4c(c3)CCCC4=O)n2)cc(OC)c1OC | 76 µM |  |  |
| COc1cc(Nc2cncc(Sc3cccc4ccccc34)n2)cc(OC)c1OC | 9.8 µM |  |  |
| COc1cc(Nc2cncc(-c3cccc(O)c3)n2)cc(OC)c1OC | 4 µM |  |  |
| COc1cc(Nc2cncc(-c3ccc(CO)cc3)n2)cc(OC)c1OC | 26 µM |  |  |
| COc1cc(Nc2cncc(Oc3ccc4ncccc4c3)n2)cc(OC)c1OC | 29 µM |  |  |
| COc1cc(Nc2cncc(Oc3ccncc3)n2)cc(OC)c1OC | 16 µM |  |  |
| COc1cc(Nc2cncc(Nc3ccncc3)n2)cc(OC)c1OC | 4.7 µM |  |  |
| CC(=O)Nc1cccc2c(Oc3cncc(Nc4ccc5c(c4)C(=O)OC5)n3)cccc12 | 2.5 µM |  |  |
